For one experiment, the system named is Pythium ultimum. Briefly: Fungitoxicity against Pythium ultimum (inhibition of mycelial growth in liquid broth). The format is cell-based. As to conditions: Globisporangium ultimum, 48 hours at 25° C. with shaking, asparagine-sucrose broth, read-out: % Inhibition of growth (increase in mycelial dry weight) as compared to controls. As to the method:
Compounds were tested for fungitoxicity against Pythium ultimum according to the procedures set forth below.
Test compounds were dissolved in dimethylsulfoxide at 20 mg/ml and 0.1 ml was added to 19.9 ml of a liquid asparagine-sucrose broth, prepared according to the method described in Erwin, D. C., and Katznelson, K., Canadian Journal of Microbiology 7, 15 (1971), in 9 cm petri dishes to give a concentration of 100 ppm of the compound. Each plate was inoculated with a mycelial plug, 7 mm in diameter, taken from the growing edge of a culture of Pythium ultimum grown on potato dextrose agar. Two replicate plates were used for each treatment. After growth for 48 hours at 25° C. with shaking on a gyrotary shaker at 60 rpm, the increase in mycelial dry weight was determined. Fungitoxicity was recorded as percent inhibition of growth as compared to controls lacking the test compounds.

In another experiment the test system is Phytophthora infestans. Description: whole plant or invertebrate. The class given is in vivo. Particulars: in Solanum lycopersicum, 144 h, read-out: percent disease control, TLB.
The next experiment has as its system Plasmopara viticola. The class given is in vivo. As to conditions: 7-8 days at 20° C.
For experiment [1], the system named is Pseudoperonospora cubensis. As to conditions: in vivo.

The values below come from patent publication US5811427A (priority 1997, dated 1998).

Regarding `CCC(C)(NC(=O)c1ccc2ncoc2c1)C(=O)CCl` (stereo not shown) [Compound 1], the inhibition at 100 ppm in the experiment on Pythium ultimum was determined as 89.4%. For the same compound, the pest or weed control at 375 ppm in the experiment on Phytophthora infestans amounted to 100%.
Take `CCC(C)(NC(=O)c1cc(Cl)c2ncoc2c1)C(=O)CCl` (stereo not shown) [Compound 3]: in the experiment on Plasmopara viticola, the “percent disease control, GDM” value was 100%. Further, the inhibition at 100 ppm in the experiment with Pythium ultimum was 92%. Also, the pest or weed control at 300 ppm with Phytophthora infestans is 100%.
Turning to `CCC(C)(NC(=O)c1ccc2nc(C)oc2c1)C(=O)C(Cl)Cl` (stereo not shown) [Compound 14], in the experiment on Pythium ultimum, the inhibition at 100 ppm is 94.5%.
The same measure, in the same setting: to `CCC(C)(NC(=O)c1ccc2c(c1)CCO2)C(=O)C(Cl)Cl` (stereo not shown) [Compound 7] belongs 94.5%.
As to `CCC(C)(NC(=O)c1cc(Cl)c2nc(C)oc2c1)C(=O)CCl` (stereo not shown) [Compound 12], the “percent disease control, GDM” value in the experiment on Plasmopara viticola came to 90%. Also, the inhibition at 100 ppm in the experiment with Pythium ultimum worked out at 90.7%. In the experiment on Phytophthora infestans, the pest or weed control at 300 ppm came to 95%.
Turning to `CCC(C)(NC(=O)c1ccc2[nH]ccc2c1)C(=O)C(Cl)Cl` (stereo not shown) [Compound 5], in the experiment with Pythium ultimum, the inhibition at 100 ppm is 66.9%. Moreover, the “percent disease control, CDM” value in experiment [1] amounted to 50%. Besides, the pest or weed control at 750 ppm in the experiment on Phytophthora infestans came out at 0%.
For the compound `CCC(C)(NC(=O)c1ccc2[nH]ccc2c1)C(=O)CCl` (stereo not shown) [Compound 6], in the experiment on Plasmopara viticola, the “percent disease control, GDM” value amounted to 100%. Also, the inhibition at 100 ppm in the experiment on Pythium ultimum was determined as 88.6%. Moreover, the pest or weed control at 300 ppm with Phytophthora infestans stood at 100%.
As for `CCC(C)(NC(=O)c1ccc2ocnc2c1)C(=O)CCl` (stereo not shown) [Compound 8], the “percent disease control, GDM” value with Plasmopara viticola is listed as 100%. Also, the inhibition at 100 ppm with Pythium ultimum was 93.7%. The pest or weed control at 300 ppm in the experiment with Phytophthora infestans is 90%.
Take `CCC(C)(NC(=O)c1ccc2ncsc2c1)C(=O)CCl` (stereo not shown) [Compound 4]: the inhibition at 100 ppm in the experiment on Pythium ultimum was found to be 94.2%. The “percent disease control, CDM” value in experiment [1] was 50%. In the experiment with Phytophthora infestans, the pest or weed control at 300 ppm came to 100%.
Regarding `CCC(C)(NC(=O)c1ccc2c(c1)CCO2)C(=O)CCl` (stereo not shown) [Compound 9], the “percent disease control, GDM” value with Plasmopara viticola is on record as 0%. The inhibition at 100 ppm with Pythium ultimum was determined as 91.6%. In the experiment on Phytophthora infestans, the pest or weed control at 300 ppm is 100%.

What is called inhibition is the change of the read-out against control, counted positive when it falls.
